Test system: AAV producer cell (HEK293)
Experiment: AAV titer by ddPCR, JQ1 treatment with and without wash out (FIG. 4)
Assay type: cell-based, human
Conditions: JQ1 4 μmol/L for 24 hours, medium exchanged to medium without JQ1 (with doxycycline 0.5 μg/mL), recovered after further 48 hours; versus 72 hours JQ1
Protocol: The HEK cell culture solution, which had been cultured for 72 hours after the gene introduction under the conditions of 37° C. and 8% CO2, was collected, and the cells were disrupted by freezing and thawing at −80° C. Then, the supernatant was collected by centrifugation at 13,800×g, 2 mmol/L (final concentration) MgCl2, and 25 U/mL Benzonase was added thereto, and a reaction was carried out at 37° C. for 2 hours to digest gDNA (genomic DNA) and residual plasmid. The sample after the reaction was incubated at 95° C. for 15 minutes, 70° C. for 3 minutes, 40° C. for 3 minutes, and 20° C. for 3 minutes in this order, to inactivate Benzonase, and the reactant was used as a ddPCR (Droplet Digital PCR) sample. […]. The sequences of the seq18, seq19, and seq20 are set forth in SEQ ID NOs: 18 to 20 in the sequence list.
In ddPCR, droplets were formed from the prepared solution using a droplet forming apparatus, and subsequently incubated at 95° C. for 10 minutes, 94° C. for 30 seconds, and 55° C. in this order for 40 cycles, and then incubated at 98° C. for 10 minutes. Measurement was performed using a droplet reader, and the AAV genomic titer (vg/mL) was calculated.
Furthermore, the produced AAV producer cell was seeded at 5×10^5 cells/mL and incubated for 6 hours, and then doxycycline (final concentration: 0.5 μg/mL) and JQ1 (final concentration: 4 μmol/L) were added. […]

Cc1sc2c(c1C)C(c1ccc(Cl)cc1)=N[C@@H](CC(=O)OC(C)(C)C)c1nnc(C)n1-2 [(+)-JQ1, (S)-(+)-tert-butyl 2-(4-(4-chlorophenyl)-2,3,9-trimethyl-6H-thieno[3,2-f][1,2,4]triazolo[4,3-a][1,4]diazepin-6-yl)acetate]
AAV titer per cell: further improved

From patent publication US20250188427A1, “METHOD OF PRODUCING TARGET VIRUS AND CULTURE COMPOSITION” (FUJIFILM Corporation, priority 2022, published 2025)
